ChEMBL document CHEMBL1152288, “Characterization of thien-2-yl 1S,2R-milnacipran analogues as potent norepinephrine/serotonin transporter inhibitors for the treatment of neuropathic pain” (J Med Chem, 2008)
Active and inactive are the calls of the source. No cut-off for these calls is given here.

Columns and labels:
[1] = target: Sodium-dependent serotonin transporter (Rattus norvegicus, UniProt P31652); format: cell-based, HEK293
Rattus norvegicus [2] = test: Antinociceptive activity in CD rat assessed as reduction in number of hind paw flinching at 60 mg/kg, po by formalin test; format: functional; design: scale not given: the % may be the effect or the level left
Transporter = Transporter (Rattus norvegicus, UniProt Q63380); test: biochemical
Chain of Transporter (Q63380 whole entry): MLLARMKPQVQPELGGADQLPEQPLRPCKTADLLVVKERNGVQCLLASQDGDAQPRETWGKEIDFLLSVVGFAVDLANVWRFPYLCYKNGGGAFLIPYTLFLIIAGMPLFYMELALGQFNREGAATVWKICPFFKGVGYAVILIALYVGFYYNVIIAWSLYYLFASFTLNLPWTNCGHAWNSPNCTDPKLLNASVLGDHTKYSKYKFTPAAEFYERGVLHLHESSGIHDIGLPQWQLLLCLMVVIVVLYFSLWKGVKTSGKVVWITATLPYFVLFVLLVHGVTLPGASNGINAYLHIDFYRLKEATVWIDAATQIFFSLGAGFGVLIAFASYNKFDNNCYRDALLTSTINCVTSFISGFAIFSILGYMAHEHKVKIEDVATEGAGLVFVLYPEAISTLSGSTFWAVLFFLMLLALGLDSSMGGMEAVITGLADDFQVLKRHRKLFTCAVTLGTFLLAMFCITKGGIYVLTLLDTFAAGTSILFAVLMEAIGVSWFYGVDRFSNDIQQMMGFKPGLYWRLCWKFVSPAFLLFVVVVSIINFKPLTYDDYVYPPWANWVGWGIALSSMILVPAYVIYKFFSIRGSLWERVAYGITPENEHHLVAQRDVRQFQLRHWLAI
Description: Displacement of Levo[ring-2,5,6-3H]norepinephrine from rat synaptosomal NET expressed in HEK293 cells by microplate scintillation counter

[3] = target: Sodium-dependent dopamine transporter (Rattus norvegicus, UniProt P23977); test: biochemical
Chain of Sodium-dependent dopamine transporter (Rattus norvegicus, UniProt P23977) (P23977 whole entry): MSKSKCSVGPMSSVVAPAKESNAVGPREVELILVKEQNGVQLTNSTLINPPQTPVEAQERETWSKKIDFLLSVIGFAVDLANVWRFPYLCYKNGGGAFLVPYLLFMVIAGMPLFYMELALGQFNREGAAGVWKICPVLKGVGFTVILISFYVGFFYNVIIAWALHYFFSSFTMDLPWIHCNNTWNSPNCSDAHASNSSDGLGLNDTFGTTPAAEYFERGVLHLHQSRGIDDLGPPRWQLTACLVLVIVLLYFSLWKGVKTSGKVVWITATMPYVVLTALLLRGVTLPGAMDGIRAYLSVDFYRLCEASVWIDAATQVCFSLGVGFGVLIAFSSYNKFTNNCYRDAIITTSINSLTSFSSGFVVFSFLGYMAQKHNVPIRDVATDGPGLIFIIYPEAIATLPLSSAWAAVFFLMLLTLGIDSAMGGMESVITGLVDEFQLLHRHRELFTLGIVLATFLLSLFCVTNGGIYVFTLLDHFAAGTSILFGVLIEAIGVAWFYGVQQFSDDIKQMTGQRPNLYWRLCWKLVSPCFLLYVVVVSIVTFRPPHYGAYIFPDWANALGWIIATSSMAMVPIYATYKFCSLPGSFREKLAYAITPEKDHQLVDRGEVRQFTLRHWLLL
Description: Displacement of 3,4-[ring-2,5,6-3H]dihydroxyphenylethylamine from rat synaptosomal DAT expressed in HEK293 cells by microplate scintillation counter

[4] = Lipophilicity, log D of the compound; format: physicochemical; details: octanol/water
[5] = Partition coefficient, log P of the compound; format: physicochemical; details: octanol/water
[6] = Metabolic stability in human liver microsomes assessed as systemic clearance at 1 uM after 15 mins by LC-MS/MS analysis; format: ADME, Microsome
[7] = Metabolic stability in rat liver microsomes assessed as systemic clearance at 1 uM after 15 mins by LC-MS/MS analysis; format: ADME, Microsome
[8] = Cmax in Sprague-Dawley rat at 30 mg/kg, po; format: ADME, organism-based; design: dose 30 mg/kg, route oral; details: in vivo
[9] = Tmax in Sprague-Dawley rat at 30 mg/kg, po; format: ADME, organism-based; design: dose 30 mg/kg, route oral; details: in vivo
[10] = AUC in Sprague-Dawley rat at 30 mg/kg, po; format: ADME, organism-based; design: dose 30 mg/kg, route oral; details: plasma
[11] = Apparent elimination half life in Sprague-Dawley rat at 30 mg/kg, po; format: ADME, organism-based; design: dose 30 mg/kg, route oral; details: in vivo, read-out: beta t1/2 (converted)
[12] = Apparent oral clearance in Sprague-Dawley rat at 30 mg/kg, po; format: ADME, organism-based; design: dose 30 mg/kg, route oral; details: in vivo
[13] = Drug level in Sprague-Dawley rat brain at 30 mg/kg, po after 1 hr; format: ADME, organism-based; design: dose 30 mg/kg, route oral; details: read-out: Drug uptake
[14] = Drug level in Sprague-Dawley rat brain at 30 mg/kg, po after 4 hrs; format: ADME, organism-based; design: dose 30 mg/kg, route oral; details: read-out: Drug uptake
[15] = Ratio of drug level in brain to plasma in Sprague-Dawley rat at 30 mg/kg, po after 1 hr; format: ADME, organism-based; design: dose 30 mg/kg, route oral
[16] = Ratio of drug level in brain to plasma in Sprague-Dawley rat at 30 mg/kg, po after 4 hrs; format: ADME, organism-based; design: dose 30 mg/kg, route oral
in vitro = details: human, Caco-2
Description: Apparent permeability from apical to basolateral side of the human Caco-2 cells

[17] = target: Sodium-dependent noradrenaline transporter (Homo sapiens, UniProt P23975); test: biochemical
Chain of Sodium-dependent noradrenaline transporter (P23975 whole entry): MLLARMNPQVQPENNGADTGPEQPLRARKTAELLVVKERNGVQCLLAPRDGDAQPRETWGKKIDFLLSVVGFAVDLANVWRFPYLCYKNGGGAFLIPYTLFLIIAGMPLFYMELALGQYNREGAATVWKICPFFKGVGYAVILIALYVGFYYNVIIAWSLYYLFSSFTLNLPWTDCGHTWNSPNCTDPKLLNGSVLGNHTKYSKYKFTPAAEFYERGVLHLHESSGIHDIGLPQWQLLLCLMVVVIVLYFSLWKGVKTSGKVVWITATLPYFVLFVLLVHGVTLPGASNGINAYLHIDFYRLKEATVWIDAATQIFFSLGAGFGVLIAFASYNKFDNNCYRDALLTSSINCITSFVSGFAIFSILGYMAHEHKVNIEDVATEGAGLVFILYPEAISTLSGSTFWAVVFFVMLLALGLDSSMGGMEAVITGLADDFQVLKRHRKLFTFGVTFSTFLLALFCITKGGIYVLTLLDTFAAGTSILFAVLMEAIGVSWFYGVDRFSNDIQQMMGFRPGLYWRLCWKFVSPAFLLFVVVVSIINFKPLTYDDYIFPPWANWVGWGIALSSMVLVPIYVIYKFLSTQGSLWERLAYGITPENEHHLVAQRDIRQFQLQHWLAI
Description: Displacement of Levo[ring-2,5,6-3H]norepinephrine from human cloned NET expressed in HEK293 cells by microplate scintillation counter

[18] = target: Sodium-dependent serotonin transporter (Homo sapiens, UniProt P31645); test: biochemical
Chain of Sodium-dependent serotonin transporter (Homo sapiens, UniProt P31645) (P31645 whole entry): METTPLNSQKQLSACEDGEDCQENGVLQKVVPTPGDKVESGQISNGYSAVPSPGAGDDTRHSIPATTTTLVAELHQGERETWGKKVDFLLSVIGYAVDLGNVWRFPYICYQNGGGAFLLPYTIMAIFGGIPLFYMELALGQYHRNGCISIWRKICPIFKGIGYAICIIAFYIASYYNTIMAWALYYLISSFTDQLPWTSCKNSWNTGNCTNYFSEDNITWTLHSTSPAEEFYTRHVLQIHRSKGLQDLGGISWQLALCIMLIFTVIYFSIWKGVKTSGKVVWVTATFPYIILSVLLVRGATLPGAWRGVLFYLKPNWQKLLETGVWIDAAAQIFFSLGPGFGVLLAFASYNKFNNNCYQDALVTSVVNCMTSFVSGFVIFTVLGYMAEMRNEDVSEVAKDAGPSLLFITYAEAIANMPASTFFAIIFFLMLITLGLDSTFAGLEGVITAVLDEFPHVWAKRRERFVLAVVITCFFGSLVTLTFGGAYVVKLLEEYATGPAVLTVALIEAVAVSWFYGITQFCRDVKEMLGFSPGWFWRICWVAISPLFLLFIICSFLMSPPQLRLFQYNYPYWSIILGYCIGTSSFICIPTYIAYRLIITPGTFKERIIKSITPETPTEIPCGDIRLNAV
Description: Displacement of [alpha,beta-3H(N)]-5-hydroxytryptamine from human cloned SERT expressed in HEK293 cells by microplate scintillation counter

[19] = target: Sodium-dependent dopamine transporter (Homo sapiens, UniProt Q01959); test: biochemical
Chain of Sodium-dependent dopamine transporter (Homo sapiens, UniProt Q01959) (Q01959 whole entry): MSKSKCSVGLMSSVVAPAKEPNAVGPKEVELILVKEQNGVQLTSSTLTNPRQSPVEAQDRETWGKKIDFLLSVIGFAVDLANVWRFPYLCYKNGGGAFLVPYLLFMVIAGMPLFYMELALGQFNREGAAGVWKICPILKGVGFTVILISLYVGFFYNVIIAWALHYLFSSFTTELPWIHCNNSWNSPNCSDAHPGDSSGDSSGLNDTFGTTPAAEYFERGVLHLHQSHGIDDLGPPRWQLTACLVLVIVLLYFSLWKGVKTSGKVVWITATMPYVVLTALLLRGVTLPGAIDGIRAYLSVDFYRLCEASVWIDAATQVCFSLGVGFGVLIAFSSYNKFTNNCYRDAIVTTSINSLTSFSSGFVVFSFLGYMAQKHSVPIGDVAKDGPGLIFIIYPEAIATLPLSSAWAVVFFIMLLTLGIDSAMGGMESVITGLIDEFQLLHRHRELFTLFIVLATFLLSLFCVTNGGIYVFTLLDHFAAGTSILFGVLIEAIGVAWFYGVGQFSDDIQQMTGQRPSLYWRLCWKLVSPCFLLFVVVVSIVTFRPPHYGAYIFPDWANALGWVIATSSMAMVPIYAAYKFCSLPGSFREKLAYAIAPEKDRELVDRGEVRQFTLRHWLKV
Description: Displacement of 3,4-[ring-2,5,6-3H]dihydroxyphenylethylamine from human cloned DAT expressed in HEK293 cells by microplate scintillation counter

[20] = target: Voltage-gated inwardly rectifying potassium channel KCNH2 (Homo sapiens, UniProt Q12809)
Chain of Voltage-gated inwardly rectifying potassium channel KCNH2 (Q12809 whole entry): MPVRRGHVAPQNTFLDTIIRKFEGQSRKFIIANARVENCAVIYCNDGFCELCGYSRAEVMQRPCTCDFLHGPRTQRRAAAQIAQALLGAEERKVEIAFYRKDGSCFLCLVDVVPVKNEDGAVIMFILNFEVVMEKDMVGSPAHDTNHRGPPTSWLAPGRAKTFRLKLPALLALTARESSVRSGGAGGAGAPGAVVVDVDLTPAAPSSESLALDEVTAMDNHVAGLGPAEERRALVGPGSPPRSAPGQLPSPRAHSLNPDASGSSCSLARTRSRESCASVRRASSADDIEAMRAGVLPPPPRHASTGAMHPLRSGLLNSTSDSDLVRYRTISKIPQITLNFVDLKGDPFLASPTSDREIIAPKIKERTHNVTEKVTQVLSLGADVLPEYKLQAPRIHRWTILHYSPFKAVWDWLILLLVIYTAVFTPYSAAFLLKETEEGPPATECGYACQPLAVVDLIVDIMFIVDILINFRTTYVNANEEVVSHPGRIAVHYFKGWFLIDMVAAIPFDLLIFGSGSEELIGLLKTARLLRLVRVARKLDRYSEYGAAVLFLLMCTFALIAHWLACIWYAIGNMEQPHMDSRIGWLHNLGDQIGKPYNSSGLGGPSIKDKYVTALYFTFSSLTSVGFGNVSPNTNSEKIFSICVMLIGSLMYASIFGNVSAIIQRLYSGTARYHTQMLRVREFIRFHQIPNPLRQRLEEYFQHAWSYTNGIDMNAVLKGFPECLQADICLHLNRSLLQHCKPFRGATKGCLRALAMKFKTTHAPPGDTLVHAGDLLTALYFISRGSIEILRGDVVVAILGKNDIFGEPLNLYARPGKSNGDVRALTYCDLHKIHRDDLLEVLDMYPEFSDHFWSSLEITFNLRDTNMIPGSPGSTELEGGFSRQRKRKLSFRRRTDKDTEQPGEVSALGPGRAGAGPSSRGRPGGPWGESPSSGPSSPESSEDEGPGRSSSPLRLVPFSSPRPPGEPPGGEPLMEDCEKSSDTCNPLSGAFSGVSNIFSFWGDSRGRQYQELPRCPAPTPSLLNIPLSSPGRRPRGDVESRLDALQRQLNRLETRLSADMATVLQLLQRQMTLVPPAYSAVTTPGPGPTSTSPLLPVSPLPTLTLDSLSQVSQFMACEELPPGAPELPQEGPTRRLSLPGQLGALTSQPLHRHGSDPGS
Description: Inhibition of human ERG expressed in HEK293 cells by patch-clamp method

[21] = Plasma clearance in Sprague-Dawley rat at 2.5 mg/kg, iv; format: ADME, organism-based; design: dose 2.5 mg/kg, route intravenous
[22] = Cmax in Sprague-Dawley rat at 10 mg/kg, po; format: ADME, organism-based; design: dose 10 mg/kg, route oral; details: in vivo
[23] = Tmax in Sprague-Dawley rat at 10 mg/kg, po; format: ADME, organism-based; design: dose 10 mg/kg, route oral; details: in vivo
[24] = AUC in Sprague-Dawley rat at 10 mg/kg, po; format: ADME, organism-based; design: dose 10 mg/kg, route oral; details: plasma
[25] = Apparent elimination half life in Sprague-Dawley rat at 10 mg/kg, po; format: ADME, organism-based; design: dose 10 mg/kg, route oral; details: in vivo, read-out: beta t1/2 (converted)
[26] = Apparent oral clearance in Sprague-Dawley rat at 10 mg/kg, po; format: ADME, organism-based; design: dose 10 mg/kg, route oral; details: in vivo
[27] = AUC in Sprague-Dawley rat at 2.5 mg/kg, iv; format: ADME, organism-based; design: dose 2.5 mg/kg, route intravenous; details: plasma
[28] = Half life in Sprague-Dawley rat at 2.5 mg/kg, iv; format: ADME, organism-based; design: dose 2.5 mg/kg, route intravenous; details: in vivo
[29] = Mean residence time in Sprague-Dawley rat at 2.5 mg/kg, iv; format: ADME, organism-based; design: dose 2.5 mg/kg, route intravenous; details: in vivo
[30] = Volume of distribution at steady state in Sprague-Dawley rat at 2.5 mg/kg, iv; format: ADME, organism-based; design: dose 2.5 mg/kg, route intravenous; details: in vivo, read-out: Vdss
[31] = Volume of distribution in Sprague-Dawley rat at 2.5 mg/kg, iv; format: ADME, organism-based; design: dose 2.5 mg/kg, route intravenous; details: in vivo
[32] = Bioavailability in Sprague-Dawley rat at 2.5 mg/kg, iv; format: ADME, organism-based; details: in vivo
Rattus norvegicus [33] = test: Antinociceptive activity in CD rat assessed as reduction in number of hind paw flinching at 100 mg/kg, po by formalin test; format: functional, organism-based; design: dose 100 mg/kg
Rattus norvegicus [34] = organism: Rattus norvegicus; test: Reversal of pin-prick-induced neuropathic mechanical hyperalgesia in Harlan Sprague-Dawley rat sciatic nerve ligation model; format: functional, organism-based
in vivo [35] = details: Sprague-Dawley, rat, brain/plasma, po, 10 mg/kg
Description: Ratio of drug level in brain to plasma in Sprague-Dawley rat at 10 mg/kg, po after 1 hr

in vivo [36] = details: Sprague-Dawley, rat, brain/plasma, po, 10 mg/kg; remark: listed apart in the source
Description: Ratio of drug level in brain to plasma in Sprague-Dawley rat at 10 mg/kg, po after 4 hrs

Chain of Sodium-dependent serotonin transporter (Rattus norvegicus, UniProt P31652) (P31652 whole entry): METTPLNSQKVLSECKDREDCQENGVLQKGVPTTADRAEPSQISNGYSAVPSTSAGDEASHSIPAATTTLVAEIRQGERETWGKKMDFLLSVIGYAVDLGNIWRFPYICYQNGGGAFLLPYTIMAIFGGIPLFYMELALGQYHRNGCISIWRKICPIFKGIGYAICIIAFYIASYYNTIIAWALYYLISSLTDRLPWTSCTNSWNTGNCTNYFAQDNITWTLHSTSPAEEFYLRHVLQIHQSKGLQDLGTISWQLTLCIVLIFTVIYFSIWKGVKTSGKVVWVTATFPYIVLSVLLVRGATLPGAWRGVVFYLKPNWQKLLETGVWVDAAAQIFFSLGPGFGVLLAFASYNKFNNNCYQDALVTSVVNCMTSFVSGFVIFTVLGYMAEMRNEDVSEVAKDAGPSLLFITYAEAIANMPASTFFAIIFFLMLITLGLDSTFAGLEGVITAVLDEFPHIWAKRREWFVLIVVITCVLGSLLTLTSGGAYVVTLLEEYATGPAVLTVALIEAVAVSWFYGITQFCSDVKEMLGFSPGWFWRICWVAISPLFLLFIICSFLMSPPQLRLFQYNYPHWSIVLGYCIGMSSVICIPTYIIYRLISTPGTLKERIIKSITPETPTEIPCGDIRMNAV
Description for physchem: Dissociation constant, pKa of the compound

Structure (SMILES)	IC50 [1] [nM]	Activity (Rattus norvegicus [2]) [%]	IC50 (Transporter) [nM]	IC50 [3] [nM]	logD [4]	logP [5]	CLhep predicted at 1 µM [6] [mL/min/kg]	CLhep predicted at 1 µM [7] [mL/min/kg]	pKa (physchem)	Papp A→B (in vitro) [×10⁻⁶ cm/s]	IC50 [17] [nM]	IC50 [18] [nM]	IC50 [19] [nM]	also measured
C=CCN(CC)C(=O)[C@@]1(c2ccsc2)C[C@H]1CN	27	56	6.4	> 10000	–	–	–	–	–	–	–	–	–	–
C#CCN(CC)C(=O)[C@@]1(c2cccs2)C[C@H]1CN	160	56	160	> 10000	0.1	1.6	2.6	44	9.4	20.6	19	81	> 10000	Cmax [8]: 649 ng/mL; Tmax [9]: 1.7 h; AUC [10]: 3210 ng·h/mL; half-life [11]: 1.9 h; CL/F [12]: 156 mL/min/kg; concentration at 1 h [13]: 230 ng/g; concentration at 4 h [14]: 112 ng/g; Kp at 1 h [15]: 0.3; Kp at 4 h [16]: 0.3
C=CCN(C(=O)[C@@]1(c2cccs2)C[C@H]1CN)C1CC1	–	–	–	–	–	–	5	63	–	17.8	17	45	> 10000	IC50 [20]: > 10000 nM
C[C@H]1O[C@@H](O[C@H]2[C@@H](O)C[C@H](O[C@H]3[C@@H](O)C[C@H](O[C@H]4CC[C@@]5(C)[C@H](CC[C@@H]6[C@@H]5C[C@@H](O)[C@]5(C)[C@@H](C7=CC(=O)OC7)CC[C@]65O)C4)O[C@@H]3C)O[C@@H]2C)C[C@H](O)[C@@H]1O [DIGOXIN]	–	–	–	–	–	–	–	–	–	1	–	–	–	–
C=CCN(CC)C(=O)[C@@]1(c2cccs2)C[C@H]1CN	–	–	–	–	–	–	11	62	–	13.7	15	140	> 10000	–
CCN(CC)C(=O)[C@]1(c2ccccc2)C[C@H]1CN	28	56	16	20000	-0.2	1.6	5	24	9.6	–	–	–	–	clearance [21]: 58 mL/min/kg; Cmax [22]: 232 ng/mL; Tmax [23]: 0.3 h; AUC [24]: 566 ng·h/mL; half-life [25]: 1.3 h; CL/F [26]: 294 mL/min/kg; AUC [27]: 897 ng·h/mL; half-life [28]: 0.8 h; MRT [29]: 0.52 h; Vd [30]: 2 L/kg; Vd [31]: 4.3 L/kg; bioavailability [32]: 16%; Activity (Rattus norvegicus [33]): Active; Activity (Rattus norvegicus [34]): Dose-dependent effect; Kp at 1 h (in vivo [35]): 0.42; Kp at 4 h (in vivo [36]): 0.86
